The target in the experiment is T1, thrombin enzyme (Homo sapiens, UniProt P00734).
T1 construct: from tissue; host or cells: whole blood (drop of blood, 10 µl)
As to the kind of experiment: specificity of the specific reagent vis-à-vis the thrombin enzyme, progressive inhibition by r-hirudin. Format: biochemical. Conditions: whole blood, thrombin inhibited by increasing r-hirudin. On the procedure:
In the experiments reported hereinafter, potentiostatic measurements were performed by chronoamperometry by means of a potentiostat PGP 201 connected to the Vm1 software of Radiometer (Copenhagen) allowing the following conditions to be obtained:
The surface of the working electrode of the sensor used is 0.035 cm^2 and the sample quantity, drop of blood, or reference solution is 10 μl. the recording of measurements starts 10 seconds after the sample is deposited. The oligopeptide used, hereinafter designated according to use by <>, selected from those indicated previously, is:
Given that whole blood contains extremely numerous constituents, the present experiment allows it to be shown that only the thrombin enzyme is capable of cutting the specific reagent substrate. The experiment is performed in the optimisation conditions defined by experiment 3 (namely PC/PS in the ratio 25/75, Hepes buffer and lyophilisation) starting with a dilution in equal parts of blood and buffer solution and progressively inhibiting the thrombin enzyme by increasing concentrations of r-hirudin (r-hirudin 2000 ATU/bulb, available from Pentapharm AG, Basel, Switzerland) which replace the buffer solution, preferably having checked that the factor Xa is not inhibited by r-hirudin. […]

From patent publication US6352630B1, “Electrochemical system for determining blood coagulation time” (Asulab S.A., priority 1999, dated 2002) come the findings set out here.

With “Tos-Gly-Pro-Arg-3-chloro-4-hydroxyanilide, 2HCl [substrate]”, the “cutting of the substrate, selectivity” value is “selectively cut off by thrombin”.
